According to ChEMBL document CHEMBL3875185, “Structure-anticonvulsant activity studies in the group of (E)-N-cinnamoyl aminoalkanols derivatives monosubstituted in phenyl ring with 4-Cl, 4-CH3 or 2-CH3” (Bioorg Med Chem, 2017):
Calls of active or inactive are those of the source. The rule behind the calls is not given here.

Legend:
Mus musculus [1] = assay: Neurotoxicity in mouse assessed as induction of motor impairment at 300 mg/kg, ip measured at 4 hrs post dose by rotarod method; format: toxicity, organism-based; details: in vivo
Mus musculus [2] = assay: Anticonvulsant activity in maximal electroshock induced seizure mouse model assessed as suppression in hindlimb tonic extension at 100 mg/kg, ip measured at 4 hrs post dose; format: functional, organism-based
Rattus norvegicus [3] = assay: Neurotoxicity in Sprague-Dawley rat assessed as behavioral change at 30 mg/kg, po measured at 1 hr post dose; format: toxicity, organism-based; details: in vivo
Rattus norvegicus [4] = assay: Neurotoxicity in Sprague-Dawley rat assessed as behavioral change at 30 mg/kg, po measured at 4 hrs post dose; format: toxicity, organism-based; details: in vivo
Mus musculus [5] = assay: Anticonvulsant activity in maximal electroshock induced seizure mouse model assessed as suppression in hindlimb tonic extension at 300 mg/kg, ip measured at 4 hrs post dose; format: functional, organism-based
Mus musculus [6] = assay: Anticonvulsant activity in maximal electroshock induced seizure mouse model assessed as suppression in hindlimb tonic extension at 30 mg/kg, ip measured at 4 hrs post dose; format: functional, organism-based
[7] = Protection index, ratio of TD50 for neurotoxicity in ip dosed mouse to ED50 for ip dosed pentylenetetrazole induced seizure mouse model; format: toxicity, organism-based; details: in vivo, read-out: Ratio TD50/ED50
Rattus norvegicus [8] = assay: Neurotoxicity in Sprague-Dawley rat assessed as behavioral change at 30 mg/kg, po measured at 0.5 hrs post dose; format: toxicity, organism-based; details: in vivo
Mus musculus [9] = assay: Anticonvulsant activity in ip dosed maximal electroshock induced seizure mouse model assessed as suppression in hindlimb tonic extension by measuring time to peak effect; format: functional
[10] = Neurotoxicity in ip dosed mouse; format: toxicity, organism-based; details: in vivo
Mus musculus [11] = assay: Anticonvulsant activity in ip dosed maximal electroshock induced seizure mouse model assessed as suppression in hindlimb tonic extension; format: functional
Rattus norvegicus [12] = assay: Neurotoxicity in Sprague-Dawley rat assessed as behavioral change at 30 mg/kg, po measured at 2 hrs post dose; format: toxicity, organism-based; details: in vivo
Rattus norvegicus [13] = assay: Anticonvulsant activity in maximal electroshock induced seizure Sprague-Dawley rat model assessed as suppression in hindlimb tonic extension at 30 mg/kg, po measured at 2 hrs post dose; format: functional, organism-based
Mus musculus [14] = assay: Anticonvulsant activity in ip dosed pentylenetetrazole induced seizure mouse model assessed as no observable episode of clonic convulsion of at least 5 secs by measuring time to peak effect; format: functional
Mus musculus [15] = assay: Anticonvulsant activity in 6-Hz induced seizure mouse model assessed as restoration of normal activity within 10 secs from stimulation at 100 mg/kg, ip at 32 mA measured at 4 hrs post dose; format: functional, organism-based
Mus musculus [16] = assay: Neurotoxicity in mouse assessed as induction of motor impairment at 30 mg/kg, ip measured at 0.5 hrs post dose by rotarod method; format: toxicity, organism-based; details: in vivo
Rattus norvegicus [17] = assay: Neurotoxicity in Sprague-Dawley rat assessed as behavioral change at 30 mg/kg, ip measured at […] post dose; format: toxicity, organism-based; details: in vivo
Rattus norvegicus [18] = assay: Neurotoxicity in Sprague-Dawley rat assessed as behavioral change at 30 mg/kg, ip measured at 2 hrs post dose; format: toxicity, organism-based; details: in vivo
Mus musculus [19] = assay: Anticonvulsant activity in ip dosed pentylenetetrazole induced seizure mouse model assessed as no observable episode of clonic convulsion of at least 5 secs; format: functional
Mus musculus [20] = assay: Neurotoxicity in ip dosed mouse assessed as induction of motor impairment by measuring time to peak effect by rotarod method; format: toxicity, organism-based; details: in vivo
Mus musculus [21] = assay: Neurotoxicity in mouse assessed as induction of motor impairment at 30 mg/kg, ip measured at 4 hrs post dose by rotarod method; format: toxicity, organism-based; details: in vivo
Rattus norvegicus [22] = assay: Neurotoxicity in Sprague-Dawley rat assessed as behavioral change at 30 mg/kg, ip measured at 1 hr post dose; format: toxicity, organism-based; details: in vivo
Rattus norvegicus [23] = assay: Neurotoxicity in Sprague-Dawley rat assessed as behavioral change at 30 mg/kg, ip measured at 4 hrs post dose; format: toxicity, organism-based; details: in vivo
Rattus norvegicus [24] = assay: Neurotoxicity in Sprague-Dawley rat assessed as behavioral change at 30 mg/kg, po measured at […] post dose; format: toxicity, organism-based; details: in vivo
[25] = Protection index, ratio of TD50 for neurotoxicity in ip dosed mouse to ED50 for ip dosed maximal electroshock induced seizure mouse model; format: toxicity, organism-based; details: in vivo, read-out: Ratio TD50/ED50
Rattus norvegicus [26] = assay: Neurotoxicity in Sprague-Dawley rat assessed as behavioral change at 30 mg/kg, ip measured at 0.5 hrs post dose; format: toxicity, organism-based; details: in vivo
[27] = Displacement of [35S]dATPaS from rat cerebral cortex P2Y receptor measured after 60 mins by scintillation counting method
[28] = Displacement of [125I]Tyr11-somatostatin-14 from Sst receptor in mouse AtT-20 cells measured after 60 mins by scintillation counting method; format: cell-based; details: att20
Mus musculus [29] = assay: Anticonvulsant activity in pentylenetetrazole induced seizure mouse model assessed as no observable episode of clonic convulsion of at least 5 secs at 100 mg/kg, ip measured at 0.5 hrs post dose; format: functional, organism-based
Mus musculus [30] = assay: Anticonvulsant activity in maximal electroshock induced seizure mouse model assessed as suppression in hindlimb tonic extension at 300 mg/kg, ip measured at 0.5 hrs post dose; format: functional, organism-based
Mus musculus [31] = assay: Neurotoxicity in mouse assessed as induction of motor impairment at 300 mg/kg, ip measured at 0.5 hrs post dose by rotarod method; format: toxicity, organism-based; details: in vivo
Mus musculus [32] = assay: Neurotoxicity in mouse assessed as induction of motor impairment at 100 mg/kg, ip measured at 4 hrs post dose by rotarod method; format: toxicity, organism-based; details: in vivo
Mus musculus [33] = assay: Anticonvulsant activity in pentylenetetrazole induced seizure mouse model assessed as no observable episode of clonic convulsion of at least 5 secs at 300 mg/kg, ip measured at 0.5 hrs post dose; format: functional, organism-based
Mus musculus [34] = assay: Anticonvulsant activity in pentylenetetrazole induced seizure mouse model assessed as no observable episode of clonic convulsion of at least 5 secs at 300 mg/kg, ip measured at 4 hrs post dose; format: functional, organism-based
[35] = Displacement of [3H]batrachotoxinin from rat cerebral cortex sodium channel site 2 measured after 60 mins by scintillation counting method
Mus musculus [36] = assay: Anticonvulsant activity in maximal electroshock induced seizure mouse model assessed as suppression in hindlimb tonic extension at 30 mg/kg, ip measured at 0.5 hrs post dose; format: functional, organism-based
Mus musculus [37] = assay: Anticonvulsant activity in 6-Hz induced seizure mouse model assessed as restoration of normal activity within 10 secs from stimulation at 100 mg/kg, ip at 32 mA measured at 0.5 hrs post dose; format: functional, organism-based
Rattus norvegicus [38] = assay: Anticonvulsant activity in maximal electroshock induced seizure Sprague-Dawley rat model assessed as suppression in hindlimb tonic extension at 30 mg/kg, ip measured at […] post dose; format: functional, organism-based
Mus musculus [39] = assay: Anticonvulsant activity in maximal electroshock induced seizure mouse model assessed as suppression in hindlimb tonic extension at 100 mg/kg, ip measured at 0.5 hrs post dose; format: functional, organism-based
Mus musculus [40] = assay: Anticonvulsant activity in 6-Hz induced seizure mouse model assessed as restoration of normal activity within 10 secs from stimulation at 100 mg/kg, ip at 32 mA measured at […] post dose; format: functional, organism-based
Mus musculus [41] = assay: Anticonvulsant activity in ip dosed 6-Hz induced seizure mouse model assessed as restoration of normal activity within 10 secs from stimulation at 32 mA; format: functional
Rattus norvegicus [42] = assay: Anticonvulsant activity in po dosed pentylenetetrazole induced seizure Sprague-Dawley rat model assessed as no observable episode of clonic convulsion of at least 5 secs; format: functional
Mus musculus [43] = assay: Anticonvulsant activity in ip dosed pentylenetetrazole induced seizure mouse model; format: functional
[44] = Displacement of [3H]TCP from rat cerebral cortex phencyclidine receptor measured after 120 mins by scintillation counting method

With `O=C(/C=C/c1ccc(Cl)cc1)N[C@H]1CC[C@H](O)CC1` the Activity (Mus musculus [1]) was “Non-Toxic”, the Activity (Mus musculus [2]) was “Active” and the Activity (Rattus norvegicus [3]) was “Non-Toxic”. For the same compound, the Activity (Rattus norvegicus [4]) was “Non-Toxic”, the Activity (Mus musculus [5]) was “Active” and the Activity (Mus musculus [6]) was “Active”. For the same compound, the selectivity ratio [7] was greater than 1.9, the Activity (Rattus norvegicus [8]) was “Non-Toxic” and the Time (Mus musculus [9]) was 2 h. The TD50 [10] was greater than 600 mg/kg, the ED50 (Mus musculus [11]) was 186 mg/kg and the Activity (Rattus norvegicus [12]) was “Non-Toxic”. The Activity (Rattus norvegicus [13]) was “Active”, the Time (Mus musculus [14]) was 2 h and the Activity (Mus musculus [15]) was “Active”. The Activity (Mus musculus [16]) was “Non-Toxic”, the Activity (Rattus norvegicus [17]) was “Non-Toxic” and the Activity (Rattus norvegicus [18]) was “Non-Toxic”. For the same compound, the ED50 (Mus musculus [19]) was 317 mg/kg, the Time (Mus musculus [20]) was 6 h and the Activity (Mus musculus [21]) was “Non-Toxic”. The Activity (Rattus norvegicus [22]) was “Non-Toxic”, the Activity (Rattus norvegicus [23]) was “Non-Toxic” and the Activity (Rattus norvegicus [24]) was “Non-Toxic”. The selectivity ratio [25] was greater than 3.22 and the Activity (Rattus norvegicus [26]) was “Non-Toxic”.

For `Nc1ncnc2c1ncn2[C@H]1C[C@H](O)[C@@H](COP(O)(=S)OP(=O)(O)OP(=O)(O)O)O1` (some centres undefined), the IC50 [27] was 29 nM.

For `C[C@H](N)C(=O)NCC(=O)N[C@H]1CSSC[C@@H](C(=O)O)NC(=O)[C@H](CO)NC(=O)[C@H]([C@@H](C)O)NC(=O)[C@H](Cc2ccccc2)NC(=O)[C@H]([C@@H](C)O)NC(=O)[C@H](CCCCN)NC(=O)[C@H](Cc2c[nH]c3ccccc23)NC(=O)[C@H](Cc2ccccc2)NC(=O)[C@H](Cc2ccccc2)NC(=O)[C@H](CC(N)=O)NC(=O)[C@H](CCCCN)NC1=O` [SOMATOSTATIN], the IC50 [28] was 0.074 nM.

With `CCC(O)CNC(=O)/C=C/c1ccc(Cl)cc1` (centres undefined) the Activity (Mus musculus [1]) was “Toxic”, the Activity (Mus musculus [5]) was “Active” and the Activity (Mus musculus [29]) was “Active”. The Activity (Mus musculus [30]) was “Active”, the Activity (Mus musculus [16]) was “Non-Toxic” and the Activity (Mus musculus [31]) was “Toxic”. The Activity (Mus musculus [32]) was “Non-Toxic”, the Activity (Mus musculus [33]) was “Active” and the Activity (Mus musculus [21]) was “Non-Toxic”. The Activity (Mus musculus [34]) was “Active”.

`COc1ccc(C(=O)O[C@H]2CC[C@@]3(C)[C@H]4CC[C@H]5[C@]6(O)C[C@H](O)[C@@]7(O)[C@@H](CN8C[C@@H](C)CC[C@H]8[C@@]7(C)O)[C@]6(O)C[C@@]53O[C@@]24O)cc1OC` showed an IC50 [35] of 4000 nM.

In the case of `CCC(O)CNC(=O)/C=C/c1ccccc1C` (centres undefined), the Activity (Mus musculus [36]) is reported as “Active”, the Activity (Mus musculus [1]) is reported as “Non-Toxic” and the Activity (Mus musculus [37]) is reported as “Active”. The Activity (Rattus norvegicus [3]) was “Non-Toxic”, the Activity (Rattus norvegicus [4]) was “Non-Toxic” and the Activity (Rattus norvegicus [8]) was “Non-Toxic”. For the same compound, the Activity (Mus musculus [30]) was “Active”, the Activity (Rattus norvegicus [12]) was “Non-Toxic” and the Activity (Mus musculus [31]) was “Toxic”. The Activity (Rattus norvegicus [17]) was “Non-Toxic”, the Activity (Rattus norvegicus [18]) was “Non-Toxic” and the Activity (Mus musculus [32]) was “Non-Toxic”. The Activity (Mus musculus [33]) was “Active”, the Activity (Rattus norvegicus [38]) was “Active” and the Activity (Mus musculus [21]) was “Non-Toxic”. The Activity (Rattus norvegicus [22]) was “Non-Toxic”, the Activity (Mus musculus [39]) was “Active” and the Activity (Rattus norvegicus [23]) was “Non-Toxic”. For the same compound, the Activity (Rattus norvegicus [24]) was “Non-Toxic”, the Activity (Mus musculus [40]) was “Active” and the Activity (Rattus norvegicus [26]) was “Non-Toxic”.

For `NC(=O)N1c2ccccc2C=Cc2ccccc21` [CARBAMAZEPINE], the ED50 (Mus musculus [41]) was 47.9 mg/kg, the ED50 (Rattus norvegicus [42]) was greater than 250 mg/kg and the ED50 (Mus musculus [43]) was greater than 50 mg/kg.

Compound `C[C@]12N[C@H](Cc3ccccc31)c1ccccc12` [DIZOCILPINE] has an IC50 [44] of 4.6 nM.
